According to US20260325515A1, “TREATMENT OF CANINE CANCERS” (OneHealthCompany, Inc., priority 2023, published 2026):

What was measured:
Format in all cases: in vivo, canine (dogs)
[1] = system: TP53-mutated canine tumors; assay: Real-world clinico-genomic analysis, TP53-mutated canine tumors
Experimental: (§1) Briefly, real-world clinico-genomic data from 3000 dogs were analyzed.

[2] = system: oral malignant melanoma carrying BRCA1/2 mutations; assay: Survival of dogs with oral malignant melanoma carrying BRCA1/2 mutations treated with Olaparib; conditions: oral malignant melanoma with BRCA1/2 mutations, vs 235 days for other biomarker profiles and alternative drugs, P=0.0120
[3] = system: soft tissue sarcomas with TP53 mutations; assay: Real-world clinico-genomic analysis, soft tissue sarcomas with TP53 mutations
Experimental: as §1

[4] = system: Osteosarcoma; assay: Survival of dogs with osteosarcoma treated with Olaparib (Cox proportional-hazards model)
Description: (§2) A Cox proportional-hazards model was used to fit survival time. The model estimates the risk of death at a given time, h(t|X)=h(t)*exp(X1β1+ . . . +Xpβp), where h represents the risk of death at time t, and X represents p covariates. Additionally, the ratio of the hazard rates in the treatment group versus the control group is represented as the hazard ratio.
(§3) A one-hot encoded feature for each targeted therapy (treatment) received by the dog was created. For example, if a dog receives multiple treatments, the encoding for each treatment would be a “1,” otherwise, a treatment is encoded as “0”. Similarly, gene mutations were one-hot encoded and treated as independent variables during the analyses. Tumor types were grouped into broad categories to preserve sample size and include them as one-hot encoded features.
(§4) Each dog's survival time and status were determined based on their last known update, which was reported by the veterinarian's office. A dog is only considered deceased if there is a reported date of death, and is only considered to have survived up until the last known update. Two survival intervals were computed: survival from time of diagnosis and survival from time of treatment. When reporting hazard ratios regardless of intervention, survival time is defined as survival from time of diagnosis, which is the time from diagnosis to last known update if the dog is still active, and the time from diagnosis to death if the dog is deceased. When reporting hazard ratios for specific treatments, survival time is defined as survival from treatment. The first date of any targeted therapy being ordered is used as the start of the treatment date.
(§5) Demographic features, including weight in kilograms, sex, and reproductive status (neutered or spayed vs intact), were extracted and used as covariates in the Cox model. In addition, to control for each dog's baseline survival rates, the dog's age at diagnosis, as well as the time from diagnosis to treatment are included, which is computed by […].

[5] = system: Anal Sac carcinoma; assay: Survival of dogs with anal sac carcinoma with Olaparib; conditions: 85 without Olaparib
Description: A significant survival benefit in dogs with anal sac carcinoma treated with Olaparib was observed. Dogs receiving Olaparib achieved a median survival of 422 days compared to 273 days in untreated cases, with a hazard ratio of 0.319 and a statistically significant p-value of 0.023 (Table 2).

[6] = system: BRCA1-mutated cases; assay: Real-world clinico-genomic analysis, BRCA1-mutated cases; conditions: Olaparib, P=0.004
Experimental: as §1

[7] = system: TP53 mutant osteosarcomas; assay: Real-world clinico-genomic analysis, TP53 mutant osteosarcomas; conditions: Olaparib, P<0.001
Experimental: as §1

[8] = system: Melanoma; assay: Survival of dogs with melanoma treated with Palbociclib (Cox proportional-hazards model)
Description: as §2, §3, §4, §5

[9] = system: RB1-mutated canine tumors; assay: Real-world clinico-genomic analysis, RB1-mutated canine tumors; conditions: Rapamycin, P=0.024
Experimental: as §1

[10] = system: Squamous cell carcinoma; assay: Survival of dogs with squamous cell carcinoma treated with Toceranib (Cox proportional-hazards model)
Description: as §2, §3, §4, §5

[11] = system: carcinoma; assay: Survival of dogs with carcinoma with Toceranib; conditions: 65 without Toceranib
Description: Dogs receiving Toceranib achieved a median survival of 419 days compared to 250 days in untreated cases, with a hazard ratio of 0.292 and a statistically significant p-value of 0.003 (Table 3).

## O=C(c1cc(Cc2n[nH]c(=O)c3ccccc23)ccc1F)N1CCN(C(=O)C2CC2)CC1 [Olaparib]
[1]; TP53-mutated cases, Olaparib, P<0.001
  OS HR: 0.34
[2]
  median survival: 448 days
[3]; Olaparib, P=0.011
  OS HR: 0.07
[4]; dogs, 16 patients with treatment, 154 d (158) without treatment
  Median survival (#patients) with treatment: Inf (16)
[4]; dogs, treatment vs control, P = 0.021
  Hazard Ratio (Signal Efficacy): 0.181
[4]; vs. 154 days without treatment
  median survival: no death observed
[5]; 13 dogs with, without Olaparib 372 days (Table 2) / 273 days
  Median Survival With Olaparib: 422 days
[5]; 95% CI (0.119-0.855), p-value 0.023, 13 dogs with
  Hazard Ratio: 0.319
[6]
  OS HR: 0.39
[7]
  OS HR: 0.11

## CC(=O)c1c(C)c2cnc(Nc3ccc(N4CCNCC4)cn3)nc2n(C2CCCC2)c1=O [Palbociclib]
[8]; dogs, 13 patients with treatment, 159 d (114) without treatment
  Median survival (#patients) with treatment: 433 d (13)
[8]; dogs, treatment vs control, P = 0.043
  Hazard Ratio (Signal Efficacy): 0.273
[8]; vs. 159 days without treatment
  median survival: 433 days

## CO[C@H]1C[C@@H]2CC[C@@H](C)[C@@](O)(O2)C(=O)C(=O)N2CCCC[C@H]2C(=O)O[C@H]([C@H](C)C[C@@H]2CC[C@@H](O)[C@H](OC)C2)CC(=O)[C@H](C)/C=C(\C)[C@@H](O)[C@@H](OC)C(=O)[C@H](C)C[C@H](C)/C=C/C=C/C=C/1C [Rapamycin]
[1]; TP53-mutated canine tumors, Rapamycin, P=0.028
  OS HR: 0.73
[3]; Rapamycin, P=0.012
  OS HR: 0.11
[9]
  OS HR: 0.32

## Cc1[nH]c(/C=C2\C(=O)Nc3ccc(F)cc32)c(C)c1C(=O)NCCN1CCCC1 [Toceranib]
[10]; dogs, 13 patients with treatment, 183 d (32) without treatment
  Median survival (#patients) with treatment: 577 d (13)
[10]; dogs, treatment vs control, P = 0.005
  Hazard Ratio (Signal Efficacy): 0.072
[10]; vs. 183 days without treatment
  median survival: 577 days
[11]; 26 dogs with, without Toceranib 250 days
  Median Survival With Toceranib: 419 days
[11]; 95% CI printed (1.31-0.65), p-value 0.003, 26 dogs with
  Hazard Ratio: 0.292
